Results from patent US11034700B2, “Substituted pyrrolidine compound and use thereof” (Takeda Pharmaceutical Company Limited, priority 2017, dated 2021).

molecular target: T1, human OX2 receptor (Homo sapiens, UniProt O43614); assay: Measurement of orexin type 2 receptor agonist activity (Fluo-4 calcium fluorescence, FDSS); type: cell-based; conditions: compound at 3 μM; CHO cells forcibly expressing human OX2 receptor; DMSO = 0%, orexin A (human) 10 nM = 100%
T1 construct: expressed in transfected cells
T1 sequence (O43614 1-444): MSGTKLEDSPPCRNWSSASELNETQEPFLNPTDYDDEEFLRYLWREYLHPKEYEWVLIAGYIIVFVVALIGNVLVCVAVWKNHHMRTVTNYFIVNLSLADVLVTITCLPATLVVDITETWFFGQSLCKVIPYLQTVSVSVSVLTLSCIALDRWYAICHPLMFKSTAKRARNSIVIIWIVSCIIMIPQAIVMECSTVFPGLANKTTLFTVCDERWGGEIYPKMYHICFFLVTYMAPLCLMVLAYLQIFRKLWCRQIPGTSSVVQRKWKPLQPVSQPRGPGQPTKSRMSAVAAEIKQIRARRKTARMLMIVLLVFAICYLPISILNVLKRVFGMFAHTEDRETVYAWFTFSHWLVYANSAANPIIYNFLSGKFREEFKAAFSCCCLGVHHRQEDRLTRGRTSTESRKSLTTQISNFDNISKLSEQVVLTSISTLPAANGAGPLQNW
Text: Experimental Example 1: Obtainment of Cell Stably Expressing Human Orexin Type 2 Receptor (hOX2R)
To obtain a cell clone stably expressing human orexin type 2 receptor, human orexin type 2 receptor cDNA was inserted into pcDNA3.1(+) plasmid vector (Invitrogen), and a plasmid DNA for expression of human orexin type 2 receptor (pcDNA3.1(+)/hOX2R) was cloned. The plasmid DNA was introduced into CHO-dhfr cell by an electroporation method, and human orexin type 2 receptor expressing clone cells were obtained by limiting dilution method by using G418 drug resistance as a selection marker.
Experimental Example 2: Measurement of Orexin Type 2 Receptor Agonist Activity
CHO cells forcibly expressing human OX2 receptor were seeded in each well of 384 well black transparent bottom plate (BD Falcon) at 7,500 cells/well, and cultured for one day in a 5% CO2 incubator at 37° C. After removal of the medium in the cell plate, assay buffer A containing a calcium indicator (HESS (Life Technologies), 20 mM HEPES (Life Technologies), 0.1% BSA (Wako Pure Chemical Industries, Ltd.), 2.5 μg/mL Fluo-4 AM (DOJINDO Chemical), 0.08% Pluronic F127 (DOJINDO Chemical), 1.25 mM probenecid (DOJINDO Chemical)) was added at 30 μL/well. The plate was stood for 30 min in a 5% CO2 incubator at 37° C., and further stood at room temperature for 30 min. A test compound prepared by diluting with assay buffer B (HESS, 20 mM HEPES, 0.1% BSA) was added at 10 μL/well, and the fluorescence value was measured by FDSSμCELL (Hamamatsu Photonics K.K.) every one sec for 1 min, and thereafter every two sec for 1 min 40 sec. The activity (%) of the test compound was calculated assuming that variation in the fluorescence value when DMSO was added instead of the test compound was 0% […], and variation in the fluorescence value when orexin A (human) (PEPTIDE INSTITUTE, INC.) was added at the final concentration of 10 nM was 100% […]. The activity of each compound at the concentration of 3 μM was shown below.

SMILES | OX2R agonist activity (3 μM, %)
COc1ccc(-c2cccc(C(=O)N(C)C)c2)cc1S(=O)(=O)Nc1cccc(CC2CCN(C(=O)c3cc(C)ccc3C)C2)n1 (stereo not drawn) [Example 45, 3′-((6-((1-(2,5-dimethylbenzoyl)pyrrolidin-3-yl)methyl)pyridin-2-yl)sulfamoyl)-4′-methoxy-N,N-dimethylbiphenyl-3-carboxamide] | 92%
COc1ccc(-c2cccc(C(=O)N(C)C)c2)cc1S(=O)(=O)Nc1cc(OC2CCN(C(=O)c3cccc(C)c3)C2)ccn1 (stereo not drawn) [Example 49, 4′-methoxy-N,N-dimethyl-3′-((4-((1-(3-methylbenzoyl)pyrrolidin-3-yl)oxy)pyridin-2-yl)sulfamoyl)biphenyl-3-carboxamide] | 64%
COc1ccc(-c2cccc(C(=O)N(C)C)c2)cc1S(=O)(=O)Nc1cccc(N(C)C2CCN(C(=O)c3cc(C)ccc3C)C2)c1 (stereo not drawn) [Example 58, 3′-((3-((1-(2,5-dimethylbenzoyl)pyrrolidin-3-yl)(methyl)amino)phenyl)sulfamoyl)-4′-methoxy-N,N-dimethylbiphenyl-3-carboxamide] | 104%
COc1ccccc1S(=O)(=O)Nc1cccc(O[C@H]2CCN(C(=O)c3cc(C)ccc3C)C2)c1 [Example 62, N-(3-(((3S)-1-(2,5-dimethylbenzoyl)pyrrolidin-3-yl)oxy)phenyl)-2-methoxybenzenesulfonamide] | 69%
COc1ccccc1S(=O)(=O)Nc1cccc(O[C@@H]2CN(C(=O)c3cc(C)ccc3C)C[C@H]2OC)c1 [Example 63, N-(3-(((3R,4R)-1-(2,5-dimethylbenzoyl)-4-methoxypyrrolidin-3-yl)oxy)phenyl)-2-methoxybenzenesulfonamide] | 112%
COc1ccc(-c2cccc(C(=O)N(C)C)c2)cc1S(=O)(=O)Nc1cccc(O[C@H]2CCN(C(=O)c3c(C)cccc3C)C2)c1F [Example 71, 3′-((3-(((3S)-1-(2,6-dimethylbenzoyl)pyrrolidin-3-yl)oxy)-2-fluorophenyl)sulfamoyl)-4′-methoxy-N,N-dimethylbiphenyl-3-carboxamide] | 89%
COc1ccc(-c2cccc(C(=O)N(C)C)c2)cc1S(=O)(=O)Nc1cc(O[C@H]2CCN(C(=O)c3c(C)cccc3C)C2)ccc1F [Example 72, 3′-((5-(((3S)-1-(2,6-dimethylbenzoyl)pyrrolidin-3-yl)oxy)-2-fluorophenyl)sulfamoyl)-4′-methoxy-N,N-dimethylbiphenyl-3-carboxamide] | 85%
COc1ccccc1S(=O)(=O)Nc1cccc(O[C@@H]2CN(C(=O)c3c(C)cccc3C)C[C@H]2OC)c1 [Example 74, N-(3-(((3R,4R)-1-(2,6-dimethylbenzoyl)-4-methoxypyrrolidin-3-yl)oxy)phenyl)-2-methoxybenzenesulfonamide] | 104%
COc1ccccc1S(=O)(=O)Nc1cccc(O[C@@H]2CN(C(=O)C3(c4ccccc4)CC3)C[C@H]2OC)c1 [Example 76, 2-methoxy-N-(3-(((3R,4R)-4-methoxy-1-((1-phenylcyclopropyl)carbonyl)pyrrolidin-3-yl)oxy)phenyl)benzenesulfonamide] | 79%
CCCS(=O)(=O)Nc1cccc(O[C@@H]2CN(C(=O)c3cc(C)ccc3C)C[C@H]2OC)c1 [Example 79, N-(3-(((3R,4R)-1-(2,5-dimethylbenzoyl)-4-methoxypyrrolidin-3-yl)oxy)phenyl)propane-1-sulfonamide] | 76%
CO[C@@H]1CN(C(=O)c2cc(C)ccc2C)C[C@H]1Oc1cccc(NS(=O)(=O)C2CCOCC2)c1 [Example 81, N-(3-(((3R,4R)-1-(2,5-dimethylbenzoyl)-4-methoxypyrrolidin-3-yl)oxy)phenyl)tetrahydro-2H-pyran-4-sulfonamide] | 92%
CO[C@@H]1CN(C(=O)c2cc(C)ccc2C)C[C@H]1Oc1cccc(NS(=O)(=O)c2ccccc2F)c1 [Example 82, N-(3-(((3R,4R)-1-(2,5-dimethylbenzoyl)-4-methoxypyrrolidin-3-yl)oxy)phenyl)-2-fluorobenzenesulfonamide] | 101%
CO[C@@H]1CN(C(=O)c2cc(C)ccc2C)C[C@H]1Oc1cccc(NS(=O)(=O)c2sccc2Cl)c1 [Example 84, 3-chloro-N-(3-(((3R,4R)-1-(2,5-dimethylbenzoyl)-4-methoxypyrrolidin-3-yl)oxy)phenyl)thiophene-2-sulfonamide] | 96%
COc1ccccc1S(=O)(=O)Nc1cccc(O[C@@H]2CN(C(=O)c3c(C)cccc3F)C[C@H]2OC)c1 [Example 96, N-(3-(((3R,4R)-1-(2-fluoro-6-methylbenzoyl)-4-methoxypyrrolidin-3-yl)oxy)phenyl)-2-methoxybenzenesulfonamide] | 80%
COc1ccccc1S(=O)(=O)Nc1cccc(O[C@@H]2CN(C(=O)c3c(C)cccc3OC)C[C@H]2OC)c1 [Example 97, 2-methoxy-N-(3-(((3R,4R)-4-methoxy-1-(2-methoxy-6-methylbenzoyl)pyrrolidin-3-yl)oxy)phenyl)benzenesulfonamide] | 93%
